Key:
[1] = biological target: T1, yeast OLE1 (Saccharomyces cerevisiae, UniProt P21147); test: Growth of yeast surviving solely on yeast OLE1; format: cell-based; settings: percent of DMSO-treated condition
T1 construct: expressed in transfected cells; host or cells: S. cerevisiae ole1Δ strain (W303 pdr1Δ pdr3Δ background), pRS316 plasmid, TDH3 promoter
T1 sequence (P21147 1-510): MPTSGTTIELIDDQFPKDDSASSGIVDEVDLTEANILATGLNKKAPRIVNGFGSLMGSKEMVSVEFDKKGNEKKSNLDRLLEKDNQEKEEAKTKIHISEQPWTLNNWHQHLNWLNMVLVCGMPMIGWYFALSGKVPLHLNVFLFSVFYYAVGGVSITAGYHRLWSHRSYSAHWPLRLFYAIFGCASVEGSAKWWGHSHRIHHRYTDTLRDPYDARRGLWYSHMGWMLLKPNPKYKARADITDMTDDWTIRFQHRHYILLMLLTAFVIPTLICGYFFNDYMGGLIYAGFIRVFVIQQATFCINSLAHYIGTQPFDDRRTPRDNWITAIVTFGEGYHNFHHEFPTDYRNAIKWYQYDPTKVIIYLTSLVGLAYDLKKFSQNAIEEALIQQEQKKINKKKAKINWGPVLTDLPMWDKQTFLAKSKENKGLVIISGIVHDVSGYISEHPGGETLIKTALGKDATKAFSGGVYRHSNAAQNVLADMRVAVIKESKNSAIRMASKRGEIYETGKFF
Excerpt: (§1) To generate yeast strains expressing SCD1 or SCD5 as the sole desaturase, the human SCD1 and SCD5 genes were cloned from cDNAs (Harvard PlasmID database Clone ID HsCD00340237 for SCD1 and HsCD00342695 for SCD5) into yeast plasmid pRS316 (ATCC 77145) between the yeast TDH3 promoter and the CYC1 terminator. The coding sequence of yeast OLE1 was also cloned into this plasmid). These clones were then transformed into the ole1Δ strain and plated on CSM-Ura media (CSM lacking uracil) with 2% glucose (w/v) and independent colonies were isolated and amplified.
(§2) All compound profiling experiments were performed using the same basic protocol. Different genetic backgrounds (e.g., gene deletions) or conditions (e.g., addition of oleic and palmitoleic acid) were replaced as indicated below.
(§3) Compound stocks (10 mM in 100% DMSO) were arrayed into 384 round well, v-bottom polypropylene plates and diluted according to indicated dilution factors. Compound administration was performed in two separate steps. First, 15 μL of CSM-Galactose (induces expression of toxic protein) was dispensed into clear 384 well assay plates using a MULTIDROP™ Combi reagent dispenser. The diluted compound stock plates were then applied to the assay plates using an automated workstation (Perkin Elmer JANUS™) outfitted with a 384 pin tool containing slotted pins that deliver 100 nL of compound. The cultures described above were then diluted to a 2× concentration (0.03 and 0.08 for alpha-synuclein and ApoE, final OD600 of 0.015 and 0.04) in CSM-Galactose. For wild-type and Ole1/SCD1/SCD5 plasmid-containing strains, the 2× cell density was 0.02. In all experiments, 15 μL culture was then dispensed into the pinned assay plate to achieve 30 μL of the 1×OD600 culture and a top drug concentration of […]. For 96-well assays (FIGS. 2A and 2B), compound dilutions in DMSO were generated in 96 well plates and 1 μL was manually pipetted into 96 well clear bottom assay plates.
(§4) For experiments using a plasmid-borne copy of Ole1, SCD1, or SCD5 (FIGS. 4B, 7, and 8), media lacking uracil (SX-Ura, where X is glucose, raffinose, or galactose), was used for all steps of the compound profiling protocol to ensure its maintenance throughout the assay.
(§5) After yeast delivery, assay plates were incubated under humidified conditions at 30° C. for 24 to 40 h. ApoE4 rescue experiments were stopped at 24 h, aSyn experiments at 40 h, Ole1 at 24 h, and SCD1/SCD5 at 40 h. The growth of yeast was monitored by reading the OD600 of each well using a microplate reader (Perkin Elmer EnVision™). For model rescue experiments, raw data were processed by background subtracting and calculating a fold-change relative to DMSO control [(EXP−0.035)/(DMSO−0.035)—where 0.035 is the OD600 contributed by an empty well containing 30 μL of media alone]. For growth inhibition of wild-type cells, raw data were processed by background subtracting and converting values to a percent of the nontreated condition for that strain [(EXP−0.035)/(DMSO−0.035)×100%].

[2] = biological target: T2, human SCD5 (Homo sapiens, UniProt Q86SK9); test: Growth of humanized yeast expressing human SCD5 as sole desaturase; format: cell-based, Saccharomyces cerevisiae expressing Saccharomyces cerevisiae expressing Saccharomyces cerevisiae expressing Saccharomyces cerevisiae expressing Saccharomyces cerevisiae expressing human SCD5 SCD5 SCD5 SCD5 SCD5; settings: yeast growth
T2 construct: host or cells: S. cerevisiae ole1Δ strain (W303 pdr1Δ pdr3Δ background), pRS316 plasmid, TDH3 promoter
T2 sequence (Q86SK9 1-330): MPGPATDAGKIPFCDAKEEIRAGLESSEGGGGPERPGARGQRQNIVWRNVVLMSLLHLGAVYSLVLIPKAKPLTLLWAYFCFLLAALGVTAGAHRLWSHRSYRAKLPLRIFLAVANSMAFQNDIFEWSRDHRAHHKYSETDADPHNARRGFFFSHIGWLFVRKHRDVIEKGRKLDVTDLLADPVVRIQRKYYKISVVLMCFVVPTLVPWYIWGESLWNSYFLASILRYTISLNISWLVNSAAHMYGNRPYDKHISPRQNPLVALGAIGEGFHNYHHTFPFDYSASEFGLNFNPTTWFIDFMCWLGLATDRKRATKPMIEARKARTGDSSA
Excerpt: as §1, §2, §3, §4, §5

## Cc1nnc(-c2ccc(N3CCC(Oc4cc(F)ccc4Cl)CC3)nn2)o1 [CAY10566]
[1]
  growth inhibition of yeast expressing OLE1: resistant
[2]
  half-maximal inhibitory concentration (IC50), SCD5 humanized strain: low nanomolar
